For assay [1], the target named is T1, HIV-1 IN-IN subunit exchange (Human immunodeficiency virus type 1 group M subtype B, UniProt P04585).
T1 construct: Full-length IN and LEDGF proteins were expressed in E. coli BL21(DE3); made in house; host or cells: E. coli BL21(DE3)
Description: HTRF-based IN subunit exchange assay (IN-IN dimerization). Type of assay: binding. The conditions noted are these: for IC50: concentration required to inhibit the HIV-1 IN-IN subunit exchange by 50%, HTRF, His- and FLAG-tagged IN; for IN-IN subunit exchange, percentage of control: measured in the presence of 100 μM concentration. The procedure:
(§1) Full-length IN and LEDGF proteins were expressed in E. coli BL21(DE3) and were purified as described (Kessl et al., [2012]; Esposito et al., [2015]; Tintori et al., [2015]). His- and FLAG-tagged INs, were mixed in 25 mM Tris (pH 7.4) buffer containing 150 mM NaCl, 2 mM MgCl2, 0.1% Nonidet P-40, 1 mg/ml BSA. Test compounds were then added to the mixture. A mixture of anti-His6-XL665 and anti-FLAG-EuCryptate antibodies were then added to the reaction and, after an incubation, the plate are read and the HTRF signal is calculated from the 665/620 nm ratio.
(§2) In this assay two IN preparation are used: a first His-tagged IN preparation, and a second Flag-tagged IN preparation. In both preparations the purified IN is at equilibrium as a dimer; such dimers go through monomers exchange. […] The formation of this “hybrid” dimer can be monitored in the HTRF-based assay as described (Esposito et al., [2015]; Tintori et al., [2015]). When the assay is performed in the presence of a compound inhibiting dimerization, the HTRF signal decreases as the concentration of compound increases, whereas in the presence of a compound promoting IN multimerization (association of dimers) the HTRF signal increases as the concentration of the compound increases.
On the technique in general: In TR-FRET formats the signal depends on donor and acceptor labels being close together.

For the next assay, the target named is T2, HIV-1 IN multimerization (Human immunodeficiency virus type 1 group M subtype B, UniProt P04585).
T2 construct: Full-length IN and LEDGF proteins were expressed in E. coli BL21(DE3); made in house; host or cells: E. coli BL21(DE3)
Description: HTRF-based IN multimerization assay. Type of assay: binding. As to conditions: for EC50: concentration stimulating the Multimerization Increase by 50%, HTRF, read-out: IN-multim MI50; for IN multimerization signal, % of control at 100 µM: measured in the presence of 100 μM concentration, read-out: IN-multim, percentage of control. The procedure: as §1, §2

Assay [2] addresses T3, Full-length recombinant HIV-1 integrase (Human immunodeficiency virus type 1 group M subtype B, UniProt P04585).
T3 construct: Full-length recombinant HIV-1 integrase protein was then loaded onto this oligo substrate; purchased Xpressbio Life Science Products (Express Biotech International)
The assay can be described thus: HIV-1 IN activity inhibition assay (Xpressbio HIV-1 IN Assay kit, 3'-processing/strand transfer). Type of assay: biochemical. The method, then:
Express Biotech International Company performed this assay using its HIV-1 IN Assay kit (Xpressbio Life Science Products, USA. www.xpressbio.com). Briefly, Streptavidin coated 96-well plates were coated with a double-stranded HIV-1 LTR U5 donor substrate (DS) oligonucleotide containing an end-labeled biotin. Full-length recombinant HIV-1 integrase protein was then loaded onto this oligo substrate. Compounds were added to the reaction and then a different double-stranded target substrate (TS) oligo containing 3′-end modifications was added to the plate. The sequence of DS DNA and TS DNA substrates used in this assay were
respectively (Hazuda et al., [1994] and Engelman et al., [1993]). The HIV-1 IN cleaves the terminal two bases from the exposed 3′-end of the HIV-1 LTR DS and then catalyzes a strand-transfer reaction to integrate the DS into the TS. The products of the reaction were detected colorimetrically using an HRP-labeled antibody directed against the TS 3′-end modification. Percent inhibition in the IN assay was calculated and IC50 values were determined.

The mark [3] stands for this setting: Table 1, colorimetric HRP read-out, ±SD, read-out: IN inhibition IC50(μM) ±SD.
Setting [4] is: Table 2, colorimetric HRP read-out, read-out: IN inhibition IC50.

Where two headings read alike, the source gives them in different places. Marks after values point to notes of the source that are not given here. Peptide text beside a SMILES is read from it. A value given as a limit tells only on which side of the number the result lay.

Take `CCCC(C(=O)O)c1c(C)nc2ccc(Cl)cc2c1-c1ccccc1` (stereo not drawn) [LEDGIN-6, reference compound]: in assay [1], the IC50 is more than 100 µM and the “IN-IN subunit exchange, percentage of control” value was >100 (100%). Also, the EC50 on HIV-1 IN multimerization came to 10 ± 1 µM.

For the molecule `CC[C@H](C)[C@H](NC(=O)[C@H](CCC(=O)O)NC(=O)[C@H](CCCCN)NC(C)=O)C(=O)N[C@H](C(=O)N[C@@H](C)C(=O)N[C@@H](CO)C(=O)N[C@@H](CS)C(=O)N[C@@H](CC(=O)O)C(=O)N[C@@H](CCCCN)C(=O)N[C@@H](CS)C(N)=O)C(C)C` [Peptide 12] (Ac-KEIVASCDKC-NH2), the IC50 in assay [2] (setting [3]) amounted to 477 ± 23 µM.

As to Ac-DFNLPPVVAK-NH2 [Peptide 9], the IC50 in assay [2] (setting [3]) turned out to be 213 ± 12 µM.

Consider Ac-GIDKAQDEHE-NH2 [Peptide 2], for which the IC50 in assay [2] (setting [3]) was determined as 162 ± 9 µM.

Regarding Ac-VFAKEIVAH-NH2 [Peptide 20], in assay [2] (setting [4]), the IC50 stood at 375 ± 19 µM.

For the molecule Ac-VVAAEIVAH-NH2 [Peptide 24], the IC50 in assay [2] (setting [4]) was found to be 20.8 ± 1.3 µM; in assay [1] it was 32 ± 3 µM. For the same molecule, at HIV-1 IN multimerization, the EC50 was more than 100 µM. Moreover, the IN multimerization signal, % of control at 100 µM at HIV-1 IN multimerization was found to be 100%.

On to Ac-VVAKAIVAH-NH2 [Peptide 25], for which the results for the IC50 in assay [2] (setting [4]) and in assay [1] were 13 ± 1 µM and more than 100 µM, respectively. Also, in assay [1], the “IN-IN subunit exchange, percentage of control” value was >100 (100%). Further, the EC50 at HIV-1 IN multimerization is 4.8 ± 0.4 µM.

In the case of Ac-VVAKEIFAH-NH2 [Peptide 21], the IC50 in assay [2] (setting [4]) was determined as 504 ± 22 µM.

For the molecule Ac-VVAKEIVAH-NH2 [Peptide 18], the IC50 in assay [2] (setting [3]) stood at 4.5 ± 0.9 µM. In assay [1], the IC50 was more than 100 µM and the “IN-IN subunit exchange, percentage of control” value is given as >100 (100%)^b. Besides, at HIV-1 IN multimerization, the EC50 is more than 100 µM and the IN multimerization signal, % of control at 100 µM was 100%.

Broadly, the IC50 is the midpoint of a concentration-inhibition curve.

(Values after PMC4901077, “Development and Identification of a Novel Anti-HIV-1 Peptide Derived by Modification of the N-Terminal Domain of HIV-1 Integrase” (Frontiers in Microbiology, 2016).)
